By Ki is commonly meant a measure of affinity in units of concentration, obtained from inhibition or displacement.

Drawing on BindingDB's records for doi:10.1021/jm00046a002 (Upjohn, 1994), this text covers Ki for 2 compounds.

For assay [1], the target named is T1, Dimer of Gag-Pol polyprotein [489-587] (Human immunodeficiency virus 1, UniProt P12497).
T1 construct: 489-587
The experiment in a line: Protease Inhibition Assay. The source says: (§1) HIV-1 protease was purified and refolded from E. coli inclusion bodies. The substrate used spans the p17-p24 processing site (R-V-S-Q-N-Y-P-I-V-Q-N-K) and was derivatized with biotin and fluorescein isothiocyanate (FITC) at the amino and carboxy termini. In the presence of HIV-l protease, the substrate is rapidly cleaved into two parts. The biotinylated amino terminal fragment binds to the avidin beads while the FITC-containing carboxy1 terminal fragment is removed through the membrane. […] The bound fluorescence is obtained by processing on an IDEXX Screen Machine. Determination of Ki values with this assay requires analysis under conditions in which substrate concentration resides substantially below Km and the inhibitor concentrations greatly exceeds the Ki value and the enzyme concentration.

Assay [2] deals with T2, Dimer of Gag-Pol polyprotein [514-612] (Human immunodeficiency virus 2, UniProt P04584).
T2 construct: 514-612
T2 sequence (P04584 whole entry): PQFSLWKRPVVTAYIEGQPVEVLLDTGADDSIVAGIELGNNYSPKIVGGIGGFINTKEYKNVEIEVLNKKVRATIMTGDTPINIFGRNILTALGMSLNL
Briefly: Protease Inhibition Assay.
Text: as §1

With `O=c1oc2c(c(O)c1C(c1ccccc1)C1CC1)CCCCCC2` (configuration not stated), the Ki in assay [1] is 15 nM. In assay [2], `CCC(Cc1ccccc1)c1cc(O)c(C(CC)c2ccccc2)c(=O)o1` (configuration not stated) [4-hydroxy-6-(1-phenylbutan-2-yl)-3-(1-phenylpropyl)-2H-pyran-2-one] gave a Ki of 32 nM.
